Results as given in article PMC12471852, “Design and Synthesis of Marine-Inspired Itampolin A Derivatives to Overcome Chemoresistance in NSCLC via Cholesterol Homeostasis Modulation” (Marine Drugs, 2025).
Several values for one entry are separate records, joined by “and”; a condition that tells them apart may be missing. Equal entries are not always repeated. Entries after “also recorded” stand apart in the source; their conditions may differ.

Columns and labels:
TM7SF2 [1] = assay: Western blot / immunofluorescence of TM7SF2 protein in PC9/GR cells; assay type: cell-based, human; settings: 4l-treated vs untreated PC9/GR, immunoblotting
From the text: (§1) By comparing PC9/GR treated with the small molecule compound 4l against untreated PC9/GR controls, we identified significant differentially expressed genes (DEGs). […] The results of the GO enrichment analysis further emphasized the significant impact of the small molecule compound 4l on steroid biosynthesis and metabolism in lung cancer cells, with the top five pathways being steroid biosynthesis, steroid metabolism, the metabolism of hydroxylated compounds, steroid biosynthesis, and cholesterol biosynthesis (Figure 4C). […] TM7SF2 has been identified as a critical regulator of cholesterol biosynthesis and steroid metabolism in lung cancer cells, a finding central to overcoming chemoresistance in NSCLC [28]. Thus, we selected TM7SF2 as the target gene for further experiments and investigated the protein expression of TM7SF2 in 4l-treated PC9/GR cells using immunoblotting.
Western blot: Proteins extracted with RIPA buffer were quantified (BCA), separated by SDS-PAGE, transferred to PVDF membranes, and probed with antibodies. Signals were detected by ECL.

p38α = p38α (Homo sapiens, UniProt Q16539); assay: ADP-Glo Kinase Assay, p38α MAP kinase inhibition; assay type: biochemical; settings: read-out: p38α MAP kinase inhibitory activity IC50
Sequence of p38α (Q16539 whole entry): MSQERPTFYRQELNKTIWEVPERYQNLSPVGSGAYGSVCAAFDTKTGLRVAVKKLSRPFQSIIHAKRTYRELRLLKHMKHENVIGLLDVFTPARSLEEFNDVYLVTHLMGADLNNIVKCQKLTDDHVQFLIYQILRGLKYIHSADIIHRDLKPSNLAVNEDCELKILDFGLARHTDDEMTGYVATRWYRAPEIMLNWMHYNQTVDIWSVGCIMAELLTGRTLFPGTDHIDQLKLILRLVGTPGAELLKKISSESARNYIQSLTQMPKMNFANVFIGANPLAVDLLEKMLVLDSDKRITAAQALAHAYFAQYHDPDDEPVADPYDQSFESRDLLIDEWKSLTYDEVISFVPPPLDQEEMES
Protocol: The capacity of brominated tyrosine derivatives to inhibit p38α activity was evaluated using the ADP-Glo Kinase Assay.

PC9 cells = assay: Intracellular total cholesterol quantification, PC9 cells; assay type: cell-based, human; settings: PC9, 24 h treatment
Protocol: Following sample collection, intracellular total cholesterol levels were quantified using a commercial Total Cholesterol (T-CHO) assay kit (Nanjing Jiancheng Bioengineering Institute, Nanjing, China) according to the manufacturer’s protocol. Cells were treated as indicated 24 h prior to analysis. Total cellular protein was extracted, and protein concentration was determined using a bicinchoninic acid (BCA) assay. Protein aliquots were loaded in duplicate into a 96-well microplate. Reagents were added sequentially as specified in the kit instructions. After incubation at 37 °C for 10 min, absorbance was measured at 510 nm using a microplate reader. Total cholesterol content was normalized to cellular protein concentration and expressed as μg cholesterol per mg protein.

[2] = test system: PC9/GR nude mouse xenografts; assay: PC9/GR nude mouse xenograft tumor growth; assay type: in vivo, BALB/c nude mice
From the text: (§2) For many years, the technique of implanting human tumor cell lines into nude mice models has been widely used to predict the anti-cancer effects of targeted anti-cancer drugs. In the nude mouse tumor implantation experiment, we continuously monitored the changes in the mouse body weight after administration. […] At the end of the experiment, after euthanizing the nude mice using the spinal dislocation method, we isolated the tumor tissues, weighed them, and conducted statistical analysis.
(§3) BALB/c nude mice (n = 12) were subcutaneously injected with PC9/GR cells (1 × 10^7 cells/mouse). When tumors reached 50 mm^3, mice received daily 4l or vehicle (3 weeks). Tumor volume (0.52 × length × width^2) and weight were recorded post-euthanasia.

TM7SF2 [3] = assay: Transcriptome sequencing, differentially expressed genes; assay type: cell-based, human; settings: 4l-treated vs untreated PC9/GR
From the text: as §1

[4] = Body weight / toxicity monitoring in tumor-bearing nude mice; assay type: in vivo, BALB/c nude mice
From the text: as §2, §3

PC9/GR cells [5] = assay: Transwell migration assay; assay type: cell-based, human
Protocol: Cell migration was assessed using Transwell chambers (8.0 µm pore size; Corning, NY, USA). Cells suspended in serum-free medium were seeded into the upper chamber. The lower chamber contained 1 mL of DMEM supplemented with 10% FBS as a chemoattractant. Following 24 h of incubation, non-migrated cells on the upper membrane surface were removed. Migrated cells adherent to the lower membrane surface were fixed, stained with 0.1% crystal violet (Solarbio, China) for 15 min, and imaged. Migrated cells were quantified by counting five random fields per insert under a light microscope (Olympus, Tokyo, Japan).

PC9/GR cells [6] = assay: Scratch (wound) healing assay; assay type: cell-based, human; settings: for relative wound healing area: vehicle control 44.08%
Protocol: PC9/GR cells were grown to 90% confluence. A uniform wound was created in the monolayer using a sterile 200 µL pipette tip. The initial wound area was imaged immediately (0 h) using phase-contrast microscopy. After 24 h of incubation in complete medium, the wound area was re-imaged. The relative wound closure rate was calculated from the change in wound area using ImageJ software (version 1.53).

[7] = fourth column = 75 μM by match with b18
[8] = second column = 25 μM by match with b18
[9] = third column = 50 μM by match with b18

For O=C(NCCc1cc(Br)c(O)c(Br)c1)Nc1ccc(F)cc1 [4l, 1-(3,5-dibromo-4-hydroxyphenethyl)-3-(4-fluorophenyl)urea], the “TM7SF2 protein expression level” value (TM7SF2 [1]) was “significantly reduced”, the IC50 (p38α) was 9.7 ± 1.4 nM and the intracellular cholesterol levels (PC9 cells) was “no significant effect”. For the same compound, the “tumor growth inhibition compared to gefitinib-treated group” value ([2]; 200 mg/kg of gefitinib and compound 4l) was “stronger inhibitory effect”, the “in vivo growth of PC9/GR xenografts (tumor volume)” value ([2]; 200 mg/kg, daily, 3 weeks, p < 0.05) was “effectively inhibited; also recorded: significant suppression; also recorded: significantly inhibited tumor growth” and the excised tumor weight ([2]; end of experiment) was “consistent with the volume data”. The “TM7SF2 gene expression (differentially expressed genes)” value (TM7SF2 [3]) was “significantly downregulated”, the “mouse body weight after administration” value ([4]; 200 mg/kg, 21 days) was “no significant decrease or fluctuation” and the “toxicity to nude mice / systemic toxicity” value ([4]; dosage used in the xenograft experiment) was “did not have significant toxicity; also recorded: without eliciting systemic toxicity; also recorded: without inducing systemic toxicity”. The “PC9/GR cell motility (Transwell migration)” value (PC9/GR cells [5]; 25, 50 and 75 μM) was “significant suppression”, the “effect of TM7SF2 overexpression on 4l inhibition of migration, proliferation and invasion” value (PC9/GR cells [5]; TM7SF2-overexpressing PC9/GR cells) was “attenuated the inhibitory effects” and the “relative wound healing area” value (PC9/GR cells [6]; 25 μM) was 25.32%. The “relative wound healing area” value (PC9/GR cells [6]; 50 μM) was 27.45%, the “relative wound healing area” value (PC9/GR cells [6]; 75 μM) was 15.45% and the “relative wound healing area, mean of replicates” value (PC9/GR cells [6]; [7]) was 15.4595. For the same compound, the “relative wound healing area, single replicate” value (PC9/GR cells [6]; [7]) was 9.798 and 22.5542 and 10.9511 and 18.5341, the “relative wound healing area, mean of replicates” value (PC9/GR cells [6]; [8]) was 25.3251 and the “relative wound healing area, single replicate” value (PC9/GR cells [6]; [8]) was 23.8842 and 10.9955 and 36.4639 and 29.9568. For the same compound, the “relative wound healing area, mean of replicates” value (PC9/GR cells [6]; [9]) was 27.4562 and the “relative wound healing area, single replicate” value (PC9/GR cells [6]; [9]) was 33.9434 and 27.2189 and 28.6416 and 20.021.
